The record followed here is patent US11160808B2, “Compounds that enhance Atoh1 expression” (Massachusetts Eye & Ear Infirmary, priority 2008, dated 2021).

As a reminder, the IC50 is the concentration that inhibits the measured activity by half.

Data set [1] has as its system Math1 enhancer and minimal promoter Luciferase reporter in HEK cells. Description: Math1 Luciferase reporter assay in HEK cells. The format is cell-based, human. The settings on record: Homo sapiens, HEK293; for IC50: read-out: IC50; for maximal fold induction: read-out: Maximum (Fold DMSO). The source says: A human embryonic kidney (HEK) cell line stably expressing a Luciferase gene controlled by an Math1 enhancer and minimal promoter was used in a high-throughput screen (HTS) of 144,000 small molecules to identify compounds that increase Math1 expression (i.e., transcription and/or translation). Such compounds can be used to increase the conversion of stem cells, progenitor cells, and support cells to or towards a hair cell. Screens to identify such compounds are described by Li et al., (U.S. Publication No. 2005/0287127) and Li et al., (U.S. application Ser. No. 11/953,797).
HEK cells stably expressing the Math1 Luciferase reporter were plated onto 384 well plates and cultured overnight in medium containing 10% fetal calf serum (FCS). Activation of the Math1 enhancer was measured by the increase in luminescence on a plate reader following addition of a luciferase detection agent. The assay was optimized for cell number, time of incubation, volume of medium, cell lysis reagent and luciferase reagent. Luminescence levels were compared in cells with the Math1-luciferase construct with and without retinoic acid (1 μM), and/or a luciferase construct with and without the Math1 enhancer and minimal promoter region.
To improve assay sensitivity, and reduce the coefficient of variation (CV), a more sensitive luciferase reagent (BriteLite luciferase reporter assay reagent, Perkin Elmer) was used, and Triton-X-100 was added to the lysis reagent to ensure complete lysis of the cells. Following these changes a CV of 4.2% was recorded. These conditions were used for all high-throughput screens. The luminescence threshold for a compound to be positive was defined as a 2-fold increase above the control (e.g., cells exposed to DMSO).
Cells were seeded on 384 well plates and allowed to attach overnight at 37° C. with 5% CO2 in the absence of growth factors. Math1 activation was measured by the increase in luminescence on a plate reader following addition of a luciferase detection reagent. Luminescence was assessed at 24, 48, and 72 hours. These conditions were used to screen 144,000 compounds contained in the small molecule libraries at Harvard University's Laboratory for Drug Discovery in Neurodegeneration (LDDN).
HTS were performed using HEK-Math1 cells seeded in 384 well plates. One compound was added per well using pin transfer. The final concentration of each compound was […]. Cell were incubated in the presence of a compound for 48 hours at 37° C. with 5% CO2. Cell lysates then were collected and bioluminescence determined. Luminescence values were compared normalized against DMSO.
About 20000 compounds were screened per week in 50 plates of 384 well with the aid of robotic systems (Beckman Biomek FX). Compounds were screened at an average final concentration of 0.7 μM (in 0.04% DMSO) with each plate containing 16 wells of 1 μM retinoic acid, as a positive control, and 16 wells of 0.04% DMSO, as a vehicle control. Percent activation of luminescence in the test compounds was determined for cells treated with the compounds against cells treated with DMSO.
Ten compounds, randomly selected from the group of 110 compounds identified in Example 2, were further evaluated, as follows. HEK cells were plated on 96 well plates at a density of 100000 cells per well. One day after plating, 0.1, 1, and 5 μM of each positive compound was added per well in a 10% fetal bovine serum (FBS) DMEM solution. Cells were then lysed 48 hours after addition of the compound and Math1 expression was analyzed using a luciferase reporter assay, as described above, and real-time PCR.
The half maximal inhibitory concentration (IC50) and median lethal dose or Lethal Dose, 50% (LD50) were determined for each of the compounds identified in Example 2 using standard laboratory techniques. IC50 is a measure of the effectiveness of a compound in inhibiting biological or biochemical function. LD50 is the amount of a compound required to kill half the members of a tested population.
A general note: In a reporter assay the amount or activity of a reporter protein is the signal.

A short description of data set [2]: LD50 (median lethal dose) determination. The data set is classed as cell-based. The source says:
IC50 is a measure of the effectiveness of a compound in inhibiting biological or biochemical function. LD50 is the amount of a compound required to kill half the members of a tested population.

For `O=C(Nc1ccc(Cl)cn1)c1ccc(Br)cc1` [CP-0060729, 4-bromo-N-(5-chloropyridin-2-yl)benzamide], in data set [1], the IC50 was found to be 200 nM and the maximal fold induction came out at 1.6. In addition, in data set [2], the “LD50” value was more than 10 µM.

Regarding `N#Cc1c(NC(=O)c2ccccc2F)sc2c1CCCC2` [CP-0060852, N-(3-cyano-4,5,6,7-tetrahydrobenzo[b]thio-phen-2-yl)-2-fluorobenzamide], in data set [1], the IC50 stood at 2500 nM and the maximal fold induction was found to be 1.8. Also, in data set [2], the “LD50” value was more than 10 µM.

For the compound `COc1ccc(-c2cn3ccsc3n2)cc1` [CP-0061401, 6-(4-methoxyphenyl) imidazo[2,1-b]thiazole], in data set [1], the IC50 was found to be 600 nM and the maximal fold induction came out at 1.8. For the same compound, the “LD50” value in data set [2] was more than 10 µM.

On to `CC(C)(C)c1ccc(C(=O)NCC2CCCO2)cc1` (stereo not drawn) [CP-0061566, 4-tert-butyl-N-((tetrahydrofuran-2-yl)methyl)benzamide], for which, in data set [1], the IC50 was 200 nM and the maximal fold induction was 2. In addition, the “LD50” value in data set [2] was more than 10 µM.

Regarding `O=C(c1ccc(-c2ccc(Br)cc2)o1)N1CCOCC1` [CP-0061777, (5-(4-bromophenyl)furan-2-yl)(morpholino)methanone], in data set [1], the IC50 is more than 10000 nM and the maximal fold induction stood at 2.1. Besides, the “LD50” value in data set [2] is more than 10 µM.

Regarding `Cc1ccccc1-c1nnc(-c2ccccc2)o1` [CP-0062030, 2-phenyl-5-o-tolyl-1,3,4-oxadiazole], in data set [1], the half-maximal inhibitory concentration (IC50) stood at 2000 nM and the maximal fold induction came out at 1.6. The “LD50” value in data set [2] was more than 10 µM.

In the case of `COc1ccc(OCC(=O)Nc2nccs2)cc1` [CP-0063182, 2-(4-methoxyphenoxy)-N-(thiazol-2-yl)acetamide], in data set [1], the IC50 is 200 nM and the maximal fold induction turned out to be 1.7. Further, the “LD50” value in data set [2] is more than 10 µM.

Regarding `CCc1c(C)[nH]c2cc(-c3ccc(Cl)cc3)nn2c1=O` [CP-0063375, 2-(4-chlorophenyl)-6-ethyl-5-methylpyrazolo[1,5-a]pyrimidin-7(4H)-one], in data set [1], the half-maximal inhibitory concentration (IC50) was determined as 2200 nM and the maximal fold induction stood at 1.9. Besides, in data set [2], the “LD50” value was more than 10 µM.

Regarding `O=c1ccc2ccc(OCc3ccc(F)cc3)cc2o1` [CP-0063508, 7-(4-fluorobenzyloxy)-2H-chromen-2-one], in data set [1], the IC50 is more than 10000 nM and the maximal fold induction was determined as 1.7. In addition, in data set [2], the “LD50” value was more than 10 µM.

Regarding `COc1ccc(-c2cc(-c3ccccc3)[nH]n2)c(O)c1` [CP-0064231, 5-methoxy-2-(5-phenyl-1H-pyrazol-3-yl)phenol], in data set [1], the half-inhibitory concentration (IC50) was found to be 1000 nM and the maximal fold induction was found to be 1.5. Besides, the “LD50” value in data set [2] was more than 10 µM.

Consider `O=C(Nc1ccc(Cl)cn1)c1sc2ccccc2c1Cl` [CP-0064314, 3-chloro-N-(5-chloropyridin-2-yl)benzo[b]thiophene-2-carboxamide], for which, in data set [1], the half-maximal inhibitory concentration (IC50) was more than 10000 nM and the maximal fold induction amounted to 1.7. The “LD50” value in data set [2] is more than 10 µM.

Regarding `O=C(Nc1nc2ccc(Br)cc2s1)c1cccs1` [CP-0064917, N-(6-bromobenzo[d]thiazol-2-yl)thiophene-2-carboxamide], in data set [1], the 50% inhibitory concentration (IC50) is more than 10000 nM and the maximal fold induction is 2. Further, the “LD50” value in data set [2] was more than 10 µM.

Take `Cc1cc(NC(=O)c2ccc3c(c2)OCO3)no1` [CP-0065665, N-(5-methylisoxazol-3-yl)benzo[d][1,3]dioxole-5-carboxamide]: in data set [1], the 50% inhibitory concentration (IC50) was found to be 800 nM and the maximal fold induction was 1.7. Further, in data set [2], the “LD50” value was more than 10 µM.

On to `NC(=O)c1sc2nc3c(cc2c1N)CCCCC3` [CP-0066751, 3-amino-6,7,8,9-tetrahydro-5H-cyclohepta[e]thieno[2,3-b]pyridine-2-carboxamide], for which, in data set [1], the IC50 amounted to 1000 nM and the maximal fold induction was determined as 1.9. The “LD50” value in data set [2] was more than 10 µM.

Consider `Cn1c(CCc2ccc(N)cc2)nc2ccccc21` [CP-0066829, 4-(2-(1-methyl-1H-benzo[d]imidazol-2-yl)ethyl)aniline], for which, in data set [1], the IC50 stood at 1000 nM and the maximal fold induction stood at 1.8. Besides, the “LD50” value in data set [2] is more than 10 µM.

In the case of `Cc1cc(Cl)ccc1OCc1nc(-c2ccncc2)no1` [CP-0067108, 5-((4-chloro-2-methylphenoxy)methyl)-3-(pyridin-4-yl)-1,2,4-oxadiazole], in data set [1], the 50% inhibitory concentration (IC50) was 3000 nM and the maximal fold induction stood at 1.8. Moreover, the “LD50” value in data set [2] is more than 10 µM.

With `Cn1nccc1C(=O)Nc1nc2ccccc2s1` [CP-0067233, N-(benzo[d]thiazol-2-yl)-1-methyl-1H-pyrazole-5-carboxamide], in data set [1], the IC50 is 2000 nM and the maximal fold induction was 1.8. For the same compound, in data set [2], the “LD50” value is more than 10 µM.

As for `COc1ccccc1-c1nc(-c2ccc(C)cc2)no1` [CP-0067246, 5-(2-methoxyphenyl)-3-p-tolyl-1,2,4-oxadiazole], in data set [1], the IC50 was determined as 1800 nM and the maximal fold induction was determined as 1.5. Moreover, the “LD50” value in data set [2] is more than 10 µM.

As to `c1ccc(OCc2nc(-c3ccccn3)no2)cc1` [CP-0068395, 5-(phenoxymethyl)-3-(pyridin-2-yl)-1,2,4-oxadiazole], in data set [1], the IC50 was 3000 nM and the maximal fold induction worked out at 1.6. Besides, in data set [2], the “LD50” value was more than 10 µM.

Consider `O=C(NCC1CCCO1)c1sc2ccccc2c1Cl` (stereo not drawn) [CP-0068577, 3-chloro-N-((tetrahydrofuran-2-yl)methyl)benzo[b]thio-phene-2-carboxamide], for which, in data set [1], the IC50 was 1000 nM and the maximal fold induction came to 1.6. In data set [2], the “LD50” value is more than 10 µM.

As to `Cc1ccc(-c2nc(-c3cccnc3)no2)c(Cl)c1` [CP-0068929, 5-(2-chloro-4-methylphenyl)-3-(pyridin-3-yl)-1,2,4-oxadiazole], in data set [1], the 50% inhibitory concentration (IC50) was 400 nM and the maximal fold induction is 2. Besides, the “LD50” value in data set [2] was more than 10 µM.

Take `Cc1cccc(/C(N)=N/OC(=O)c2cccnc2)c1` [CP-0069934, (Z)-3-methyl-N′-(nicotinoyloxy) benzimidamide]: in data set [1], the IC50 came to 2000 nM and the maximal fold induction is 1.7. For the same compound, the “LD50” value in data set [2] is more than 10 µM.

For the compound `COc1ccccc1OCc1nc2ccccc2[nH]1` [CP-0069961, 2-((2-methoxyphenoxy)methyl)-1H-benzo[d]imidazole], in data set [1], the IC50 was 2000 nM and the maximal fold induction amounted to 1.7. Besides, the “LD50” value in data set [2] is more than 10 µM.

`Cc1ccc(-c2noc(CN3CCCCC3)n2)cc1` [CP-0070164, 5-(piperidin-1-ylmethyl)-3-p-tolyl-1,2,4-oxadiazole]: in data set [1], the IC50 was found to be 1600 nM and the maximal fold induction turned out to be 1.7. The “LD50” value in data set [2] was more than 10 µM.

For `Brc1ccc(-c2nc(-c3cccnc3)no2)cc1` [CP-0070367, 5-(4-bromophenyl)-3-(pyridin-3-yl)-1,2,4-oxadiazole], in data set [1], the IC50 came to 2000 nM and the maximal fold induction is 1.7. In addition, the “LD50” value in data set [2] was more than 10 µM.

In the case of `CCn1ccc(C(=O)Nc2cc(Cl)ccc2Cl)n1` [CP-0070844, N-(2,5-dichlorophenyl)-1-ethyl-1H-pyrazole-3-carboxamide], in data set [1], the IC50 was 2000 nM and the maximal fold induction was 1.7. Further, the “LD50” value in data set [2] is more than 10 µM.

On to `c1ccc(CCn2nnc3ccccc32)cc1` [CP-0070871, 1-phenethyl-1H-benzo[d][1,2,3]triazole], for which, in data set [1], the IC50 was found to be 3000 nM and the maximal fold induction is 2. For the same compound, in data set [2], the “LD50” value was more than 10 µM.
